Data on 23 compounds can be found in US20100075973A1, “POLO-LIKE KINASE INHIBITORS” (TAKEDA PHARMACEUTICAL COMPANY LIMITED, priority 2008, published 2010).

Several values for one entry are separate records, joined by “and”; a condition that tells them apart may be missing. Equal entries are not always repeated. Some results are limits rather than exact numbers.

The term melting point denotes the temperature of the solid-liquid transition.

T1 sequence (P53350 whole entry): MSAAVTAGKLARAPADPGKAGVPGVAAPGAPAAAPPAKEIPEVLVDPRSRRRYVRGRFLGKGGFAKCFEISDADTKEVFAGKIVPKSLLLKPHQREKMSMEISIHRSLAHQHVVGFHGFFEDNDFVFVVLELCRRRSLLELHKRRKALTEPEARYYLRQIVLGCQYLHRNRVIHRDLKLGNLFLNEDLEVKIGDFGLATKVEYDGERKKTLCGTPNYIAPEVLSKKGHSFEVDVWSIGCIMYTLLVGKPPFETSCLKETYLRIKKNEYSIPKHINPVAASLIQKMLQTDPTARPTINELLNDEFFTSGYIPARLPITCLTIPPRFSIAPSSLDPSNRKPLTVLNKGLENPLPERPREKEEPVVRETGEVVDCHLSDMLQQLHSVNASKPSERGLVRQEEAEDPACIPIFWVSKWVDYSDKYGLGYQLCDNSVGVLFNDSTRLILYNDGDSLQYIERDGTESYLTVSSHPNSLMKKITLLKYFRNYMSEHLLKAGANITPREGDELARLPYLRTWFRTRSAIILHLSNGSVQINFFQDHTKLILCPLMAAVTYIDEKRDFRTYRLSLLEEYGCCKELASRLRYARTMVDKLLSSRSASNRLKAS

One data set concerns the target T1, human PLK1 (Homo sapiens, UniProt P53350).
T1 construct: made in house; host or cells: Sf21 insect cells, recombinant baculovirus (pFASTBAC1, Bac-to-Bac)
As to the kind of experiment: In vitro enzymatic assay: phosphorylation of alpha casein by recombinant PLK1 (Example A). As to conditions: recombinant FLAG-tagged PLK1, alpha casein substrate, 500 nmol/L ATP, [γ-32P]ATP, room temperature 40 min; read-out: pIC50 PLK1 (converted). The class given is biochemical. On the procedure: Purified PLK1 may be obtained as follows. cDNA encoding human PLK1 SEQ ID No. 1, Accession Number: NM_005030 was isolated by polymerase chain reaction PCR with primers SEQ ID Nos. 2 and 3 and cloned into pcDNA4/His-Max-TOPO Invitrogen, USA according to the manufacturer's manual. PCR was performed using the vector as a template. In the PCR, primers containing sequences encoding a FLAG-tag DYKDDDDK in the amino-terminal region SEQ ID No. 4 and vector sequence SEQ ID No. 5 were used. After XbaI and XhoI digestion of the PCR product, the fragment was subcloned into pFASTBAC1 Invitrogen, USA. Recombinant baculoviruses were prepared according to the procedure of the Bac-to-Bac baculovirus expression system Invitrogen, USA. Sf21 cells were purchased from Invitrogen and grown in Sf-900 II SFM medium containing 10% fetal bovine serum, 50 gentamicin and 0.1% pluronic F-68 Invitrogen, USA at 28° C. For preparation of PLK1 enzyme, Sf21 cells were infected with recombinant baculoviruses and cultured at 28° C. for 72 h. Cells were lysed and FLAG-tagged PLK1 protein SEQ ID No. 6 was purified by affinity chromatography using anti-FLAG M2 affinity gel Sigma, USA.
The inhibition of PLK1 by the compounds was determined with the following assay that measures the phosphorylation of alpha casein by recombinant PLK1. Kinase reactions were performed at room temperature for 40 min in the kinase reaction buffer 25 mmol/L HEPES, pH 7.5, 10 mmol/L magnesium acetate, 1 mmol/L dithiothreitol containing 50 ng PLK1 enzyme, 0.1 μCi [γ-^32P]ATP, 500 nmol/L ATP and 3 μg alpha casein MP Biomedicals Inc., USA in a final volume of 50 μL. The incubation was terminated by the addition of 10% trichloroacetic acid Wako, Japan. Phosphorylated proteins were filtrated in GF/C filter plates Packard, USA with a Cell harvester Packard, USA and washed out free [γ-^32P]-ATP with 250 mmol/L phosphoric acid. Then, the plates were air dried for 60 min at 45° C., followed by the addition of 20 μL of MicroScint-O Packard, USA. The radioactivity was counted by a Top-count scintillation counter Packard, USA. The IC50 values for test compounds were calculated by Prism 3.02 GraphPad Software, USA.
pIC50 values are the negative of the log of the IC50s and may be calculated by non-linear curve fitting of the compound concentrations and fluorescence intensities to the standard pIC50 equation.
In the case of `CC[C@@H]1c2c(C#N)ncn2-c2cnc(Nc3ccc(C(=O)NC4CCN(C5CCN(CC)CC5)CC4)cc3OC)nc2N1C(C)C` [Example 19, (R)-4-(7-Cyano-6-ethyl-5-isopropyl-5,6-dihydroimidazo[1,5-f]pteridin-3-ylamino)-N-(1′-ethyl-1,4′-bipiperidin-4-yl)-3-methoxybenzamide], the IC50 is 2 nM.
Still for that read-out and setting: the same measure for `CC[C@@H]1c2c(C#N)ncn2-c2cnc(Nc3cc(F)c(C(=O)NC4CCN(C5CCN(CC)CC5)CC4)cc3OC)nc2N1C(C)C` [Example 20, (R)-4-(7-Cyano-6-ethyl-5-isopropyl-5,6-dihydroimidazo[1,5-f]pteridin-3-ylamino)-N-(1′-ethyl-1,4′-bipiperidin-4-yl)-2-fluoro-5-methoxybenzamide]: 3.98 nM; for `CC[C@@H]1c2c(C#N)ncn2-c2cnc(Nc3ccc(C(=O)NC4CCN(C5CCN(CC6CC6)CC5)CC4)cc3OC)nc2N1C(C)C` [Example 21, (R)-4-(7-Cyano-6-ethyl-5-isopropyl-5,6-dihydroimidazo[1,5-f]pteridin-3-ylamino)-N-(1′-(cyclopropylmethyl)-1,4′-bipiperidin-4-yl)-3-methoxybenzamide]: 3.16 nM.
Consider `CC[C@@H]1c2c(C#N)ncn2-c2cnc(Nc3cc(F)c(C(=O)NC4CCN(C5CCN(CC6CC6)CC5)CC4)cc3OC)nc2N1C(C)C` [Example 22, (R)-4-(7-Cyano-6-ethyl-5-isopropyl-5,6-dihydroimidazo[1,5-f]pteridin-3-ylamino)-N-(1′-(cyclopropylmethyl)-1,4′-bipiperidin-4-yl)-2-fluoro-5-methoxybenzamide], for which the IC50 was 3.98 nM.
As to `CC[C@@H]1c2c(C#N)ncn2-c2cnc(Nc3ccc(C(=O)NC4CCN(C5CCN(CC6CC6)CC5)CC4)cc3OC)nc2N1C1CCCC1` [Example 26, (R)-4-(7-Cyano-5-cyclopentyl-6-ethyl-5,6-dihydroimidazo[1,5-f]pteridin-3-ylamino)-N-(1′-(cyclopropylmethyl)-1,4′-bipiperidin-4-yl)-3-methoxybenzamide], the IC50 was 1 nM.
As to `CC[C@@H]1c2c(C#N)ncn2-c2cnc(Nc3ccc(C(=O)NC4CCN(C5CCN(CC(C)C)CC5)CC4)cc3OC)nc2N1C1CCCC1` [Example 27, (R)-4-(7-Cyano-5-cyclopentyl-6-ethyl-5,6-dihydroimidazo[1,5-f]pteridin-3-ylamino)-N-(1′-isobutyl-1,4′-bipiperidin-4-yl)-3-methoxybenzamide], the IC50 is 2 nM.
For the compound `CC[C@@H]1c2c(C#N)ncn2-c2cnc(Nc3cc(F)c(C(=O)NC4CCN(C5CCN(CC(C)C)CC5)CC4)cc3OC)nc2N1C1CCCC1` [Example 29, (R)-4-(7-Cyano-5-cyclopentyl-6-ethyl-5,6-dihydroimidazo[1,5-f]pteridin-3-ylamino)-2-fluoro-N-(1′-isobutyl-1,4′-bipiperidin-4-yl)-5-methoxybenzamide], the IC50 is 1.26 nM.
As for `CC[C@@H]1c2c(C#N)ncn2-c2cnc(Nc3cc(F)c(C(=O)Nc4cccc(CN5CCN(C)CC5)c4)cc3OC)nc2N1C(C)C` [Example 31, (R)-4-(7-Cyano-6-ethyl-5-isopropyl-5,6-dihydroimidazo[1,5-f]pteridin-3-ylamino)-2-fluoro-5-methoxy-N-(3-((4-methylpiperazin-1-yl)methyl)phenyl)benzamide], the IC50 is 10 nM.
Same read-out and setting: to `CC[C@@H]1c2c(C#N)ncn2-c2cnc(Nc3ccc(C(=O)NC4CN(C5CCN(CC6CC6)CC5)C4)cc3OC)nc2N1C(C)C` [Example 37, (R)-4-(7-Cyano-6-ethyl-5-isopropyl-5,6-dihydroimidazo[1,5-f]pteridin-3-ylamino)-N-(1-(1-(cyclopropylmethyl)piperidin-4-yl)azetidin-3-yl)-3-methoxybenzamide] belongs 3.16 nM; to `CC[C@@H]1c2c(C#N)ncn2-c2cnc(Nc3cc(F)c(C(=O)NC4CN(C5CCN(CC6CC6)CC5)C4)cc3OC)nc2N1C(C)C` [Example 38, (R)-4-(7-Cyano-6-ethyl-5-isopropyl-5,6-dihydroimidazo[1,5-f]pteridin-3-ylamino)-N-(1-(1-(cyclopropylmethyl)piperidin-4-yl)azetidin-3-yl)-2-fluoro-5-methoxybenzamide], 3.16 nM.

System in another data set: not given
Test: not given
Settings: not given
For `CC[C@@H]1c2c(C#N)ncn2-c2cnc(Nc3cc(F)c(C(=O)N[C@H]4CC[C@H](N5CCN(CC6CC6)CC5)CC4)cc3OC)nc2N1C(C)C` [Example 1], the melting point was 251 to 255 °C and 250 to 254 °C.
Take `CC[C@@H]1c2c(C#N)ncn2-c2cnc(Nc3ccc(C(=O)NC4CCC(N5CCN(C)CC5)CC4)cc3OC)nc2N1C1CCCC1` (some centres unmarked) [Example 2]: the melting point lay within 187 to 192 °C.
The compound `CC[C@@H]1c2c(C#N)ncn2-c2cnc(Nc3ccc(C(=O)NC4CCC(N5CCN(CC)CC5)CC4)cc3OC)nc2N1C1CCCC1` (some centres unmarked) [Example 3] had a melting point of 170 to 173 °C.
In turn, `CC[C@@H]1c2c(C#N)ncn2-c2cnc(Nc3ccc(C(=O)NC4CCC(N5CCN(C(C)C)CC5)CC4)cc3OC)nc2N1C1CCCC1` (some centres unmarked) [Example 4] displayed a melting point of 216 to 220 °C.
For `CC[C@@H]1c2c(C#N)ncn2-c2cnc(Nc3ccc(C(=O)N[C@H]4CC[C@H](N5CCN(CC6CC6)CC5)CC4)cc3OC)nc2N1C1CCCC1` [Example 5], the melting point lay within 186 to 190 °C.
The same measure, in the same setting: the same measure for `CC[C@@H]1c2c(C#N)ncn2-c2cnc(Nc3cc(F)c(C(=O)NC4CCC(N5CCN(C)CC5)CC4)cc3OC)nc2N1C1CCCC1` (some centres unmarked) [Example 6]: above 205 °C.
With `CC[C@@H]1c2c(C#N)ncn2-c2cnc(Nc3cc(F)c(C(=O)NC4CCC(N5CCN(CC(C)C)CC5)CC4)cc3OC)nc2N1C1CCCC1` (some centres unmarked) [Example 8], the melting point is 155 to 158 °C.
Regarding `CC[C@@H]1c2c(C#N)ncn2-c2cnc(Nc3ccc(C(=O)NC4CCC(N5CCN(C)CC5)CC4)cc3OC)nc2N1C(C)C` (some centres unmarked) [Example 9], the melting point lay in the range of 195 to 198 °C.
`CC[C@@H]1c2c(C#N)ncn2-c2cnc(Nc3ccc(C(=O)NC4CCC(N5CCN(CC6CC6)CC5)CC4)cc3OC)nc2N1C(C)C` (some centres unmarked) [Example 11] returned a melting point of 198 to 204 °C.
`CC[C@@H]1c2c(C#N)ncn2-c2cnc(Nc3ccc(C(=O)NC4CCC(N5CCN(CC(C)C)CC5)CC4)cc3OC)nc2N1C(C)C` (some centres unmarked) [Example 12] came in with a melting point of 165 to 170 °C.
Take `CC[C@@H]1c2c(C#N)ncn2-c2cnc(Nc3cc(F)c(C(=O)NC4CCC(N5CCN(CC(C)C)CC5)CC4)cc3OC)nc2N1C(C)C` (some centres unmarked) [Example 18]: the melting point was 219 to 222 °C.
Compound `CC[C@@H]1c2c(C#N)ncn2-c2cnc(Nc3ccc(C(=O)NC4CCN(C5CCN(CC(C)C)CC5)CC4)cc3OC)nc2N1C(C)C` [Example 23, (R)-4-(7-Cyano-6-ethyl-5-isopropyl-5,6-dihydroimidazo[1,5-f]pteridin-3-ylamino)-N-(1′-isobutyl-1,4′-bipiperidin-4-yl)-3-methoxybenzamide] returned a melting point of 165 to 170 °C.
`CC[C@@H]1c2c(C#N)ncn2-c2cnc(Nc3ccc(C(=O)N[C@H]4CC[C@H](N5CCN(CC6CC6)CC5)CC4)c(F)c3)nc2N1C(C)C` [Example 45] gave a melting point of 219 to 222 °C.
